The source of these data is patent US9180212B2, “β-amyloid plaque imaging agents” (The Regents of the University of California, priority 2012, dated 2015).

“Also recorded” adds a separate entry of the source.

In one series the target is T1, amyloid plaques (Homo sapiens, UniProt P05067).
T1 construct: target the polymeric form of the β-amyloid peptide that is associated with senile plaques; from tissue; host or cells: human Alzheimer's disease brain homogenate (post mortem)
The series can be described thus: ^3H-PIB competition binding in human Alzheimers brain homogenate.

The subject of series [1] is brown adipose tissue (BAT) metabolic activity. Kind of series: ^18F-FDG PET/CT uptake in interscapular BAT of rats. It is filed as in vivo, Sprague-Dawley rats. An excerpt:
(§1) In still further experiments, binding/uptake of contemplated compounds to/by NET was investigated in adipose tissue, and especially brown adipose tissue. It should be appreciated that due to the innervation of brown adipose tissue (BAT) with neurotransmitter, norepinephrine is essential for regulation of thermogenesis, and thus has a role in obesity and diabetes. Norepinephrine acts by activating β3-adrenoceptor to increase BAT metabolic activity measurable using ^18F-FDG PET. Norepinephrine transporter (NET) inhibitors such as atomoxetine play an important role in BAT activity by increasing norepinephrine levels.
(§2) Male Sprague-Dawley rats were fasted for 24 hrs prior to ^18F-FDG administration. Rats were administered i.v. ˜0.3 mCi ^18F-FDG under 2% isoflurane anesthesia. The same rats were treated with atomoxetine 1 mg/kg, 30 mins before ^18F-FDG administration. Rats were awake for 60 mins and subsequently anesthetized for upper-body Inveon MicroPET/CT scan. To evaluate whether enhanced ^18F-FDG uptake in activated BAT could be reduced by pharmacologic interventions, propranolol ([…]) 5 mg/kg was given intraperitoneally in anesthetized rats, 30 minutes prior to atomoxetine administration. For NET imaging, ^11C-TAZA (4-^11C-methylamino-4′-dimethylaminoazobenzene) and ^11C-Dalene (4-methylamino-4′-(N—^11C-methyl-N-methylamino)stilbene) were administered iv (˜0.5-3 mCi) and scanned in Inveon PET/CT for 90 mins. Competition studies were done with atomoxetine (preinjection, 1-2 mg/kg). PET/CT data was analysed using IRW and PMOD.

In series [2] the test system is NET in brown adipose tissue (BAT). Kind of series: Rat PET/CT NET imaging in brown adipose tissue. It is filed as in vivo, Sprague-Dawley rats. The conditions noted are these: atomoxetine preinjection 1-2 mg/kg.
From the text: as §1
as §2, with “For NET imaging, ^11C-TAZA (4-^11C-methylamino-4′-dimethylaminoazobenzene) and ^11C-Dalene (4-methylamino-4′-(N—^11C-methyl-N-methylamino)stilbene) were administered iv (˜0.5-3 mCi) and scanned in Inveon PET/CT for 90 mins. Competition studies were done with atomoxetine (preinjection, 1-2 mg/kg).” left out

For series [3], the system named is norepinephrine transporters (NET). The series can be described thus: Rat brain PET with atomoxetine pre-injection (NET binding/uptake). It counts as in vivo, Sprague-Dawley rats. How it is done:
Based on earlier experimental observations (not shown), the inventors contemplated that the compounds presented herein not only bind with high specificity to β-amyloid, but also with similar high specificity to the NET. To investigate binding to/uptake by the NET, the effect of atomoxetine (ATX, a selective norepinephrine reuptake inhibitor) on the kinetics of Dalene and TAZA was tested. More specifically, Sprague-Dawley rats (308-468 g) received two 90 min PET scans each on two separate days (1-4 weeks apart) with an Inveon scanner. On first day each rat received a baseline scan, one with [^11C]Dalene and the other with [^11C]TAZA (96±8 MBq). The second day each animal was pre-injected i.v. with a 50 μl bolus of ATX (1-2 mg/Kg), 17 min before [^11C]Dalene and 2 min before [^11C]TAZA (33±7 MBq). The images were reconstructed dynamically in 25 frames (4×0.5 min, 8×1 min, 5×2 min, 2×5 min, 6×10 min). Each subject received a CT scan that was used for attenuation and scatter correction. Images were normalized to Paxinos & Watson space via co-registration with an MR rat template. Common regions of interest were drawn on the MR template and placed on brainstem, thalamus (Tha), and midbrain (Mid), brain regions with highest uptake as well as anterior cingulate cortex area 1 (Cg1), region with low NET density and which was chosen as a reference based on previous studies. Time activity curves (TACs) from all regions were analyzed in PMOD using Logan non-invasive method with Cg1's k2′ parameter estimated by fitting of brainstem data to MRTM.
Slices were then washed and exposed on to phosphor screens and slides were analysed by Optiquant image analysis program for SP binding Digital light units/mm^2 (DLU/mm^2). Sprague-Dawley rats were scanned after IV injection of ^11C-TAZA and ^11C-Dalene in Inveon PET/CT and displacement studies were done with atomoxetine (1 mg/kg). PET images were analyzed using PMOD. […] Presence of SP in the AD brains were confirmed using 4G8 antibody immunostaining for Aβ-amyloid. […] Ratios of brain stem to cingulate gyms (used as reference region) was >2.

Series [4] addresses T2, SP (senile plaques) in hippocampus of AD patients (Homo sapiens, UniProt P05067).
T2 construct: target the polymeric form of the β-amyloid peptide that is associated with senile plaques; from tissue; host or cells: 7 micron frozen sections of hippocampus of AD patients and control brains (UCI-ADRC repository)
The series can be described thus: In vitro autoradiography of human hippocampus slices (AD vs control), senile plaque imaging. It is filed as binding. As to conditions: for Binding to SP present in AD brains compared to the normal controls (in words): autoradiography. An excerpt:
Human post-mortem Studies: We used post mortem human brain specimens from the UCI-ADRC Brain tissue repository for in vitro experiments. Age and gender matched AD brain and control brain tissue were used. Control cases consisted of clinically assessed nondemented individuals ranging in age from 70-90 years of age. AD brain samples were selected for end-stage pathology (based upon comments by the neuropathologist and Braak & Braak stage of VI. We matched each AD case with a similarly aged control case. AD cases, were selected on the basis as having a clinic visit within 1 year of death. Frozen hippocampus and frontal cortex, regions vulnerable to AD pathology, were selected for these studies. Sections of the cerebellum were used as a measure of low/nonspecific binding. Chunks of frozen tissue were dissected for immunohistochemical and autoradiographic techniques, as well as for biochemical experiments.
Serial cryostat sections at 5-10 μm were used. The first set of sections was used to establish the extent of senile plaque and neurofibrillary tangle formation using immunohisto-chemistry and histological techniques. Antibodies against Aβ1-16, Aβ1-40 and Aβ1-42 were used to detect Aβ.
In vitro autoradiography studies were performed on 7 micron slices of hippocampus of AD patients (n=2) and control brains (n=2). Hippocampus slices were incubated with the radiotracer (10-25 μCi/cc) in 40% ethanol-water for ½ hour.
Binding to norepinephrine transporters (NET) were further evaluated in normal rats using PET/CT. Radiosynthesis was carried out by reacting 4-amino-4′-dimethylaminoazobenzene (1 mg/0.5 cc acetone for ^11C-TAZA) and 4-methylamino-4′-(N-methylamino)stilbene (1 mg/0.5 cc acetone for ^11C-Dalene) with 11C-methyltriflate prepared in the GE FXCPro synthesis unit. ^11C-Methyltriflate was trapped at −20° C., subsequently heated for 5 mins at 80° C. and purified using HPLC. In vitro autoradiography studies were performed on 7 micron slices of hippocampus of AD patients and control brains.
Slices were then washed and exposed on to phosphor screens and slides were analysed by Optiquant image analysis program for SP binding Digital light units/mm^2 (DLU/mm^2). Sprague-Dawley rats were scanned after IV injection of ^11C-TAZA and ^11C-Dalene in Inveon PET/CT and displacement studies were done with atomoxetine (1 mg/kg). PET images were analyzed using PMOD.

The conditions of series [5]: cited from earlier work.

T2 sequence (P05067 672-713 limits assumed): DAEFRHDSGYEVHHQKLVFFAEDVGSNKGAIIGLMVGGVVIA
T1 sequence (P05067 672-713 limits assumed): as above

For `CNc1ccc(N=Nc2ccc(N(C)C)cc2)cc1` [TAZA], the half-inhibitory concentration (IC50) (usually the concentration at which inhibition is half-maximal) at amyloid plaques (human Alzheimers brain homogenate tissue in 10% alcohol in PBS buffer, ^3H-PIB, read-out: binding affinity (IC50)) turned out to be 12.8 nM. The “times better in binding to amyloid plaques compared to PIB” value on amyloid plaques (human brain tissue, from IC50 values) is around 10 times.

In the case of `CNCC[C@@H](Oc1ccccc1C)c1ccccc1` [Atomoxetine, atomoxetine], the “increase of average ^18F-FDG uptake of IBAT compared to controls” value in series [1] (atomoxetine 1 mg/kg, 30 mins before ^18F-FDG) is above 15 times. The “average ^18F-FDG uptake of IBAT” value in series [1] (atomoxetine 1 mg/kg, 30 mins before ^18F-FDG, controls 23.9±8.7) is 365±170 kBq/cc.

With `CN(C)c1ccc(C=Cc2ccc(N[11CH3])cc2)cc1` [^11C-Dalene, 4-^11C-methylamino-4′-(N,N-dimethylamino)stilbene], the “reduction of IBAT binding by atomoxetine” value in series [2] stood at 35%. For the same compound, in series [3] (rat, in vivo), the “Effect of atomoxetine on binding in NET brain regions (in words)” value is “reduced the binding”, the “baseline BPND (Mid)” value amounted to 0.91, the “baseline BPND (Tha)” value was 0.86 and the “baseline BPND (brainstem)” value came out at 1.42. Moreover, in series [3] (rat, in vivo), the “change in BPND in ATX condition (Mid)” value stood at 5.4%, the “change in BPND in ATX condition (Tha)” value is on record as −12%, the “change in BPND in ATX condition (brainstem)” value is −18% and the “peak uptake in ATX condition relative to control” value was found to be 14 fold. For the same compound, in series [3] (rat, in vivo), the “time at which ratio target/reference reached a constant level” value was found to be 20 min. In addition, the “Displacement of radiotracer by unlabeled PIB (in words)” value in series [4] (10 μM PIB, hippocampus slices) is reported as “not complete; also recorded: displaced”. In series [4] (hippocampus slices), the “Binding to SP present in AD brains compared to the normal controls (in words)” value is recorded as “bound specifically”.

`CC(C)NCC(O)COc1cccc2ccccc12` (centres unmarked) [Propranolol, propranolol]: in series [1] (propranolol 5 mg/kg intraperitoneally, 30 minutes prior to atomoxetine), the “effect on average ^18F-FDG uptake of IBAT (in words)” value is given as “reduced”.

Turning to `CN(C)c1ccc(N=Nc2ccc(N[11CH3])cc2)cc1` [^11C-TAZA, 4-^11C-methylamino-4′-dimethylamino-azobenzene], the “reduction of IBAT binding by atomoxetine” value in series [2] was found to be 60%. In addition, in series [3] (ATX 1-2 mg/Kg i.v. pre-injection), the “change in BPND in ATX condition (brainstem)” value was determined as 11%. In addition, the “Effect of atomoxetine on binding in NET brain regions (in words)” value in series [3] (atomoxetine 1 mg/kg) is reported as “reduced the binding”. In addition, in series [3] (baseline condition, post tracer injection), the “time at which ratio target/reference reached a constant level” value is listed as 20 min. Further, the “baseline BPND (brainstem)” value in series [3] (baseline scan, Logan non-invasive method, Cg1 reference) worked out at 0.7. Moreover, in series [3] (brainstem, ATX 1-2 mg/Kg i.v. pre-injection), the “peak uptake in ATX condition relative to control” value is listed as 5 fold. Further, the “baseline BPND (Mid)” value in series [3] (midbrain, baseline scan, Cg1 reference) was 0.50. Further, the “change in BPND in ATX condition (Mid)” value in series [3] (midbrain, ATX 1-2 mg/Kg i.v. pre-injection) was 18%. For the same compound, the “baseline BPND (Tha)” value in series [3] (thalamus, baseline scan, Cg1 reference) was determined as 0.41. Further, the “change in BPND in ATX condition (Tha)” value in series [3] (thalamus, ATX 1-2 mg/Kg i.v. pre-injection) was determined as 6%. In series [4] (10 μM PIB, hippocampus slices), the “Displacement of radiotracer by PIB” value is recorded as above 80% and the “Displacement of radiotracer by unlabeled PIB (in words)” value was “displaced”. Further, the “Binding to SP compared with the other radiotracers (in words)” value in series [4] (^11C-TAZA vs ^11C-Dalene and ^11C-PIB) is recorded as “higher specific binding component; also recorded: highest binding”. Moreover, the “Binding to SP present in AD brains compared to the normal controls (in words)” value in series [4] (hippocampus slices) is on record as “bound specifically”.

Regarding `CC(=C(C#N)C#N)c1ccc2cc(N(C)CC[18F])ccc2c1` [^18F-FDDNP, 2-(1-{6-[(2-[^18F]fluoroethyl)(methyl)amino]-2-naphtyl}ethylidene)malonitrile], the log P (usually the decadic logarithm of the partition coefficient of the neutral form, usually between octanol and water) in series [5] is above 3.
